In the assay the target is T1, bovine cardiac myofibrils (Bos taurus, UniProt Q9BE39).
T1 construct: full-length cardiac myosin in the context of the native sarcomere; from tissue; host or cells: bovine cardiac left ventricular tissue, homogenized with detergent (triton X-100)
The assay can be described thus: Skinned bovine cardiac myofibril ATPase assay (PK/LDH-coupled). The format is biochemical. The note with it: inhibition of steady-state ATPase activity of bovine cardiac myofibrils, calcium at 75% activation (pCa75), PM12 buffer pH 6.8; for IC50: read-out: CDMF75 IC50. Here is the method:
To evaluate the effect of compounds on the ATPase activity of full-length cardiac myosin in the context of the native sarcomere, skinned myofibril assays were performed. Bovine cardiac myofibrils were obtained by homogenizing bovine cardiac left ventricular tissue in the presence of a detergent such as triton X-100. Such treatment removes membranes and a majority of the soluble cytoplasmic proteins but leaves intact the cardiac sarcomeric acto-myosin apparatus. Myofibril preparations retain the ability to hydrolyze ATP in an Ca^2+ regulated manner ATPase activities of such myofibril preparations in the presence and absence of compounds were assayed at Ca^2+ concentrations activating to a defined fraction of the maximal rate (i.e., 25%, 75%). Small molecule agents were assessed for their ability to inhibit the steady-state ATPase activity of bovine cardiac myofibrils using pyruvate kinase and lactate dehydrogenase (PK/LDH)-coupled enzyme system. This assay regenerates myosin-produced ADP into ATP by oxidizing NADH, producing an absorbance change at 340 nm. Prior to testing small molecule agents, the bovine cardiac myofibrils were assessed for their calcium responsiveness and the calcium concentration that achieves either a 50% (pCa50) or 75% (pCa75) activation of the myofibril system was chosen as the final condition for assessing the inhibitory activity of the small molecule agents. All enzymatic activity was measured in a buffered solution containing 12 mM PIPES (piperazine-N,N′-bis(2-ethanesulfonic acid), 2 mM magnesium chloride at pH 6.8 (PM 12 buffer). Final assay conditions were 1 mg/mL of bovine cardiac myofibrils, 4 U/mL pyruvate kinase, 6 U/mL lactate dehydrogenase, 50 μM ATP, 0.1 mg/mL BSA (bovine serum albumin), 10 ppm antifoam, 1 mM DTT, 0.5 mM NADH, 1.5 mM PEP, 0.6 mM EGTA, and an amount of CaCl2) sufficient to achieve either 50% or 75% activation of the myofibril ATPase activity. Results for compounds tested are provided in Table A. Compounds tested were prepared in accordance with the synthetic procedures described herein.

SMILES strings stand for the structures.

T1 sequence (Q9BE39 whole entry): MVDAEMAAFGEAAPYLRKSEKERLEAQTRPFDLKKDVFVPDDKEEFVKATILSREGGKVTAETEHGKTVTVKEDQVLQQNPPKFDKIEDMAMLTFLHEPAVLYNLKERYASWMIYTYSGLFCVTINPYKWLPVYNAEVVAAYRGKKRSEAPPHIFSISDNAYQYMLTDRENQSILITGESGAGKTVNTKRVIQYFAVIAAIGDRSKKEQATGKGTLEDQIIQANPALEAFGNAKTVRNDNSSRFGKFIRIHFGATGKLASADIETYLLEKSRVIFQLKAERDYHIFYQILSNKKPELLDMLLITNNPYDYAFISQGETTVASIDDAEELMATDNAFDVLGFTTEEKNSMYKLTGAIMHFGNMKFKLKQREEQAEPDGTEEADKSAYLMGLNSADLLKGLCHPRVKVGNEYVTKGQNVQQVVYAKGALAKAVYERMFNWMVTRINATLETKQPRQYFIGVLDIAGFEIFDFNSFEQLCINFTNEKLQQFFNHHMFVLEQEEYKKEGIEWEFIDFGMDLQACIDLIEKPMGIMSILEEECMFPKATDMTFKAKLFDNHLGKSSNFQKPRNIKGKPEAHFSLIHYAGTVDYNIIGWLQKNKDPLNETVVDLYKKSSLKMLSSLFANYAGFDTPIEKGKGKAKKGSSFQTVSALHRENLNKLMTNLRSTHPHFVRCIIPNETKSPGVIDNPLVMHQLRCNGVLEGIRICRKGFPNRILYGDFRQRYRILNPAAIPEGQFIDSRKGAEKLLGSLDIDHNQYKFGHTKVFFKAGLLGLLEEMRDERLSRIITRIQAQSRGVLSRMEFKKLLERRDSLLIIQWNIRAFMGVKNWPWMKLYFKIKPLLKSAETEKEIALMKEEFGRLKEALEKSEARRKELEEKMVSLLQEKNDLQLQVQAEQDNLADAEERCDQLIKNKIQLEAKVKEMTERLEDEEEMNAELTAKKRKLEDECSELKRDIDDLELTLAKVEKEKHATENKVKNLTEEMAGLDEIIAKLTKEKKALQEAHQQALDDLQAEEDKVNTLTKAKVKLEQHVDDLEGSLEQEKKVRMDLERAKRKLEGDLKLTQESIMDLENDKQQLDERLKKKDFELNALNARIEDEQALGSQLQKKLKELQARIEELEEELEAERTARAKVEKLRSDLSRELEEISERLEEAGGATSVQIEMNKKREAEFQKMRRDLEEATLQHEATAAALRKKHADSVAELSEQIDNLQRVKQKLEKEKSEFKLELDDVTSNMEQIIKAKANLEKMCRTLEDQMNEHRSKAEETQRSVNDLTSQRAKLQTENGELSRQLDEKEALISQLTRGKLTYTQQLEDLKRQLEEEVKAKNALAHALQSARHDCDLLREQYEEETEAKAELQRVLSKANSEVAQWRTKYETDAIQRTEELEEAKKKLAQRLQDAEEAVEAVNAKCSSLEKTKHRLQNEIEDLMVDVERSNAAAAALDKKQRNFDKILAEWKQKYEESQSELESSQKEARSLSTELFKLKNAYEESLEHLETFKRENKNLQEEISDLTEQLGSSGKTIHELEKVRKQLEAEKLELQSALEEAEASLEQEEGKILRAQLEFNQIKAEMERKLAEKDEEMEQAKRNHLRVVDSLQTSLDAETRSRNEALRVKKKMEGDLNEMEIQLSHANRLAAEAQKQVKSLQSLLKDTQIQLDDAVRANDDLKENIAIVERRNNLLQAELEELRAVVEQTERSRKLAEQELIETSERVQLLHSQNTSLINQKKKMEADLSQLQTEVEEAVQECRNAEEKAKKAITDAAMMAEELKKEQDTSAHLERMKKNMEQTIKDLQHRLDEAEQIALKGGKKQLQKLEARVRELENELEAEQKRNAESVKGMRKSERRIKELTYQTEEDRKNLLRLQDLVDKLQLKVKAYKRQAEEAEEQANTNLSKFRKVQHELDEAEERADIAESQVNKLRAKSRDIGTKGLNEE
T1 sequence (P85100 whole entry partner): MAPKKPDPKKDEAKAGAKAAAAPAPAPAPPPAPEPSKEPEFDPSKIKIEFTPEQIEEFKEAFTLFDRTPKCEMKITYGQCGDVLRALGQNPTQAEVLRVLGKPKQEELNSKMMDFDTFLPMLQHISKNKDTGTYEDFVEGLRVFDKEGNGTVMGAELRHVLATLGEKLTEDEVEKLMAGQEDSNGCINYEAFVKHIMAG
T1 sequence (Q3SZE5 whole entry partner): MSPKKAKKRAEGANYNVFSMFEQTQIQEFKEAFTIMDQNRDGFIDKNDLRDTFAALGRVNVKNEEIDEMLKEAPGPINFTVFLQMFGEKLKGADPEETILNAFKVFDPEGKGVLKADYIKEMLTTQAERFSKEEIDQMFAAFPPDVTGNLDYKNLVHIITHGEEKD

For the compound `CCc1nc(-c2ccc3c(c2)CCC3C(=O)Nc2ccnc(C)c2)no1` (racemic) [Compound 2, 5-(5-ethyl-1,2,4-oxadiazol-3-yl)-N-(2-methylpyridin-4-yl)-2,3-dihydro-1H-indene-1-carboxamide], the “CDMF75 IC15” value is 1.6 µM and the concentration for half-maximal inhibition (IC50) was 5.5 µM.

Regarding `CCc1nc(-c2ccc3c(c2)CCC3C(=O)Nc2ccnn2C)no1` (racemic) [Compound 5, 5-(5-ethyl-1,2,4-oxadiazol-3-yl)-N-(1-methyl-1H-pyrazol-5-yl)-2,3-dihydro-1H-indene-1-carboxamide], the “CDMF75 IC15” value was >39.2 µM and the IC50 was > 39.2 µM.

With `CCc1nc(-c2ccc3c(c2)CCC3C(=O)Nc2ccccc2)no1` (racemic) [Compound 8, 5-(5-ethyl-1,2,4-oxadiazol-3-yl)-N-phenyl-2,3-dihydro-1H-indene-1-carboxamide], the “CDMF75 IC15” value came to 1.3 µM and the IC50 came out at 6.1 µM.

In the case of `CCNC(=O)C1CCc2cc(-c3noc(CC)n3)ccc21` (racemic) [Compound 11, N-ethyl-5-(5-ethyl-1,2,4-oxadiazol-3-yl)-2,3-dihydro-1H-indene-1-carboxamide], the “CDMF75 IC15” value was >39.2 µM and the half-inhibitory concentration (IC50) is > 39.2 µM.

In the case of `Cc1cc(NC(=O)C2CCc3cc(-c4noc(C(F)F)n4)ccc32)ccn1` (racemic) [Compound 14, 5-(5-(difluoromethyl)-1,2,4-oxadiazol-3-yl)-N-(2-methylpyridin-4-yl)-2,3-dihydro-1H-indene-1-carboxamide], the “CDMF75 IC15” value was determined as 4.4 µM and the IC50 was determined as 23.1 µM.

Consider `Cc1cc(NC(=O)C2CCc3cc(-c4noc(C)n4)ccc32)ccn1` (racemic) [Compound 17, 5-(5-methyl-1,2,4-oxadiazol-3-yl)-N-(2-methylpyridin-4-yl)-2,3-dihydro-1H-indene-1-carboxamide], for which the “CDMF75 IC15” value turned out to be 6.0 µM and the IC50 worked out at 33.4 µM.

Turning to `Cc1cc(NC(=O)C2CCc3cc(-c4noc(C5CC5)n4)ccc32)ccn1` (racemic) [Compound 20, 5-(5-cyclopropyl-1,2,4-oxadiazol-3-yl)-N-(2-methylpyridin-4-yl)-2,3-dihydro-1H-indene-1-carboxamide], the “CDMF75 IC15” value came to 2.6 µM and the concentration for half-maximal inhibition (IC50) was determined as 13.9 µM.

As to `Cc1cc(NC(=O)C2CCc3cc(-c4noc(C(C)C)n4)ccc32)ccn1` (racemic) [Compound 23, 5-(5-isopropyl-1,2,4-oxadiazol-3-yl)-N-(2-methylpyridin-4-yl)-2,3-dihydro-1H-indene-1-carboxamide], the “CDMF75 IC15” value was 5.6 µM and the IC50 was 29 µM.

Take `CCc1nc(-c2ccc3c(c2)CCC32COC(=O)N2)no1` (racemic) [Compound 26, 5-(5-ethyl-1,2,4-oxadiazol-3-yl)-2,3-dihydrospiro[indene-1,4′-oxazolidin]-2′-one]: the “CDMF75 IC15” value was found to be 0.8 µM and the half-maximal inhibitory concentration (IC50) came to 3 µM.

For `Cc1nc(-c2ccc3c(c2)CCC32COC(=O)N2)no1` (racemic) [Compound 29, 5-(5-methyl-1,2,4-oxadiazol-3-yl)-2,3-dihydrospiro[indene-1,4′-oxazolidin]-2′-one], the “CDMF75 IC15” value worked out at 4.2 µM and the IC50 stood at 18.4 µM.

As for `CC(C)c1nc(-c2ccc3c(c2)CCC32COC(=O)N2)no1` (racemic) [Compound 32, 5-(5-isopropyl-1,2,4-oxadiazol-3-yl)-2,3-dihydrospiro[indene-1,4′-oxazolidin]-2′-one], the “CDMF75 IC15” value is 2.7 µM and the half-inhibitory concentration (IC50) is 11.4 µM.

Take `O=C1NC2(CCc3cc(-c4noc(C5CC5)n4)ccc32)CO1` (racemic) [Compound 35, 5-(5-cyclopropyl-1,2,4-oxadiazol-3-yl)-2,3-dihydrospiro[indene-1,4′-oxazolidin]-2′-one]: the “CDMF75 IC15” value was determined as 1.5 µM and the IC50 stood at 5.8 µM.

In the case of `O=C1NC2(CCc3cc(-c4noc(C(F)F)n4)ccc32)CO1` (racemic) [Compound 38, 5-(5-(difluoromethyl)-1,2,4-oxadiazol-3-yl)-2,3-dihydrospiro[indene-1,4′-oxazolidin]-2′-one], the “CDMF75 IC15” value came to 2.5 µM and the IC50 amounted to 14.1 µM.

In the case of `CCc1nc(-c2ccc3c(c2)OCC32COC(=O)N2)no1` (racemic) [Compound 41, 6-(5-ethyl-1,2,4-oxadiazol-3-yl)-2H-spiro[benzofuran-3,4′-oxazolidin]-2′-one], the “CDMF75 IC15” value amounted to 0.6 µM and the IC50 stood at 2.2 µM.

Take `CCc1nc(-c2ccc3c(c2)CCC3C(=O)Nc2ccnc(C)c2)no1` (single isomer, unassigned) [Compound 2A]: the “CDMF75 IC15” value amounted to 0.7 µM and the IC50 is 3 µM.

Take `CCc1nc(-c2ccc3c(c2)CCC3C(=O)Nc2ccnc(C)c2)no1` (single isomer, unassigned) [Compound 2B]: the “CDMF75 IC15” value turned out to be 17.5 µM and the IC50 is > 39.2 µM.

As for `CCc1nc(-c2ccc3c(c2)CCC3C(=O)Nc2ccnn2C)no1` (single isomer, unassigned) [Compound 5A], the “CDMF75 IC15” value is >39.2 µM and the IC50 was > 39.2 µM.

Consider `CCc1nc(-c2ccc3c(c2)CCC3C(=O)Nc2ccnn2C)no1` (single isomer, unassigned) [Compound 5B], for which the IC50 is > 39.2 µM.

`CCc1nc(-c2ccc3c(c2)CCC3C(=O)Nc2ccccc2)no1` (single isomer, unassigned) [Compound 8A]: the “CDMF75 IC15” value came out at 0.7 µM and the IC50 came to 2.8 µM.

As to `CCc1nc(-c2ccc3c(c2)CCC3C(=O)Nc2ccccc2)no1` (single isomer, unassigned) [Compound 8B], the “CDMF75 IC15” value was >39.2 µM and the IC50 was > 39.2 µM.

Take `CCNC(=O)C1CCc2cc(-c3noc(CC)n3)ccc21` (single isomer, unassigned) [Compound 11A]: the “CDMF75 IC15” value was >39.2 µM and the IC50 was > 39.2 µM.

Take `CCNC(=O)C1CCc2cc(-c3noc(CC)n3)ccc21` (single isomer, unassigned) [Compound 11B]: the “CDMF75 IC15” value is 26.3 µM and the IC50 is > 39.2 µM.

Take `Cc1cc(NC(=O)C2CCc3cc(-c4noc(C(F)F)n4)ccc32)ccn1` (single isomer, unassigned) [Compound 14A]: the “CDMF75 IC15” value was found to be 2.2 µM and the IC50 came to 11 µM.

Turning to `Cc1cc(NC(=O)C2CCc3cc(-c4noc(C(F)F)n4)ccc32)ccn1` (single isomer, unassigned) [Compound 14B], the “CDMF75 IC15” value is >39.2 µM and the IC50 is > 39.2 µM.

For `Cc1cc(NC(=O)C2CCc3cc(-c4noc(C)n4)ccc32)ccn1` (single isomer, unassigned) [Compound 17A], the “CDMF75 IC15” value stood at 2.9 µM and the IC50 is 13.6 µM.

On to `Cc1cc(NC(=O)C2CCc3cc(-c4noc(C)n4)ccc32)ccn1` (single isomer, unassigned) [Compound 17B], for which the “CDMF75 IC15” value was >39.2 µM and the IC50 was > 39.2 µM.

For the compound `Cc1cc(NC(=O)C2CCc3cc(-c4noc(C5CC5)n4)ccc32)ccn1` (single isomer, unassigned) [Compound 20A], the “CDMF75 IC15” value turned out to be 1.2 µM and the IC50 is 5.6 µM.

With `Cc1cc(NC(=O)C2CCc3cc(-c4noc(C5CC5)n4)ccc32)ccn1` (single isomer, unassigned) [Compound 20B], the “CDMF75 IC15” value was 33.2 µM and the IC50 is > 39.2 µM.

(Values after patent publication US11964967B2, “Cardiac sarcomere inhibitors” (Cytokinetics, Inc., priority 2018, dated 2024).)
